US10865192B2, “Nicotine salts, co-crystals, and salt co-crystal complexes” (priority 2014, dated 2020)
Like-named read-outs stand apart in the source and are kept apart here.

How the values were obtained:
[1] = Static stability at elevated humidity (appearance and XRPD after storage); settings: for Result (stability of screening orotic acid salts): Table 3, XRPD dry and after 1 week at 40° C./75% relative humidity (FIG. 14); for Result (stability of screening fumaric acid salts): Table 8, 40° C./75% RH, 1 day; for Static stability 25° C./96% RH: storage at 25° C./96% RH; for Static stability 25° C./96% RH / Static stability 40° C./75% RH: up to 1 week, appearance and XRPD; for Static stability 40° C./75% RH: storage at 40° C./75% RH
[2] = exposed to 650° C.
[3] = for Behaviour after deliquescence when humidity is reduced / On desorption, moisture retained down to / water lost by: GVS desorption; for Total weight change 0-90% RH / Hygroscopicity / behaviour in GVS experiment / Relative humidity at which sample deliquesced in GVS (stable until) / On desorption, moisture retained down to / water lost by: 25° C.; for XRPD of residue after GVS: residue recovered after GVS isotherm; for Relative humidity at which sample deliquesced in GVS (stable until): GVS adsorption
Procedure: Sorption isotherms were obtained using a SMS DVS Intrinsic moisture sorption analyzer, controlled by DVS Intrinsic Control software v1.0.1.2 (or v 1.0.1.3). The sample temperature was maintained at 25° C. by the instrument controls. The humidity was controlled by mixing streams of dry and wet nitrogen, with a total flow rate of 200 ml/min The relative humidity was measured by a calibrated Rotronic probe (dynamic range of 1.0-100% RH), located near the sample. The weight change, (mass relaxation) of the sample as a function of % RH was constantly monitored by the microbalance (accuracy±0.005 mg).
Typically 5-20 mg of sample was placed in a tared mesh stainless steel basket under ambient conditions. The sample was loaded and unloaded at 40% RH and 25° C. (typical room conditions). A moisture sorption isotherm was performed as outlined below (2 scans giving 1 complete cycle). The standard isotherm was performed at 25° C. at 10% RH intervals over a 0-90% RH range. Data analysis was carried out using Microsoft Excel using DVS Analysis Suite v6.2 (or 6.1 or 6.0).
The sample is recovered after completion of the isotherm and re-analyzed by XRPD.

CN1CCCC1c1cccnc1.O=C(O)c1cc(=O)[nH]c(=O)[nH]1.O=C(O)c1cc(=O)[nH]c(=O)[nH]1 (centres unmarked) [Formation in ethanol]
Result (stability of screening orotic acid salts) [1]: Stable

CN1CCCC1c1cccnc1.O=C(O)C=CC(=O)O (centres unmarked) [Formation in neat nicotine]
Result (stability of screening fumaric acid salts) [1]: Deliquesced

CN1CCCC1c1cccnc1.O=C(O)c1cc(=O)[nH]c(=O)[nH]1 (centres unmarked) [Formation in water]
Result (stability of screening orotic acid salts) [1]: Stable

CN1CCCC1c1cccnc1.O=C(O)/C=C/C(=O)O (centres unmarked) [Fumarate salt (prepared in THF), nicotine fumarate]
Humidity at which the form deliquesces (elevated humidities) [1]: > 75 % RH
Nicotine liberated on decomposition (peak areas) [2]: 97 % peak areas
Behaviour after deliquescence when humidity is reduced ([3]; fumarate): remains a liquid
Behaviour after deliquescence when humidity is reduced ([3]; listed as Fumarate Pattern 1, fumarate): does not re-crystallize
Weight gain from 0-90% RH in the GVS isotherm ([3]; GVS isotherm, 0-90% RH): 82%
Total weight change 0-90% RH ([3]; GVS isotherm, 0-90% RH): Total weight change 0-90% RH = 82 wt. %
Hygroscopicity / behaviour in GVS experiment ([3]; 0-90% RH, fumarate): wt. %, sample deliquesces and
Hygroscopicity / behaviour in GVS experiment ([3]; 0-90% RH, listed as Fumarate Pattern 1, fumarate): hygroscopic

CN1CCCC1c1cccnc1.O=C(O)c1cc(=O)[nH]c(=O)[nH]1 (centres unmarked) [Grinding]
Result (stability of screening fumaric acid salts) [1]: Deliquesced

(S)-nicotine bis-orotate [Salt A]
Static stability 25° C./96% RH [1]: Pattern 1, runny material
Static stability 25° C./96% RH ([1]; listed as Orotate Pattern 1): runny material
Static stability 25° C./96% RH ([1]; listed as bis-orotate salt-co-crystal): runny material
Static stability 40° C./75% RH [1]: No change
Nicotine liberated on decomposition (peak areas) [2]: 97 % peak areas
Total weight change 0-90% RH ([3]; GVS isotherm, 0-90% RH): RH = 0.8 wt. %, steady change in
Hygroscopicity / behaviour in GVS experiment ([3]; 0-90% RH): only slightly hygroscopic
XRPD of residue after GVS [3]: XRPD of residue showed no
Thermal stability: thermally stable

(S)-nicotine mono-orotate hemi-hydrate [Salt B]
Stability on exposure to high / elevated humidity ([1]; high humidity, general statement): not stable to exposure to high humidity
Static stability 25° C./96% RH [1]: Sticky after 24 hours, deliquesced
Static stability 25° C./96% RH ([1]; listed as Orotate Pattern 2): deliquesced
Static stability 40° C./75% RH [1]: Pattern 2, sticky material
Static stability 40° C./75% RH ([1]; listed as Orotate Pattern 2): sticky material
Nicotine liberated on decomposition (peak areas) [2]: 97 % peak areas
Relative humidity at which sample deliquesced in GVS (stable until) [3]: 80% RH then deliquesced On
Relative humidity at which sample deliquesced in GVS (stable until) ([3]; listed as Orotate Pattern 2): 80 % RH
Behaviour after deliquescence when humidity is reduced [3]: re-crystallized
On desorption, moisture retained down to / water lost by [3]: down to 60% RH XRPD of residue
On desorption, moisture retained down to / water lost by ([3]; listed as Orotate Pattern 2): 60 % RH
Total weight change 0-90% RH ([3]; GVS isotherm, 0-90% RH): RH = ~60 wt. %, stable until
XRPD of residue after GVS [3]: Pattern 2 with some Orotate Pattern 1
XRPD of residue after GVS ([3]; listed as Orotate Pattern 2): contained some Pattern 1 material
